In patent US9090647B2, “Crystalline forms of rebaudioside B” (CARGILL, INCORPORATED, priority 2010, dated 2015):
≈ marks a conversion by molar mass, not a printed value. Read-outs that look alike come from different tables or passages of the source.

Experiment: Solubility of rebaudioside B crystal polymorphs by incremental addition to solvent in a temperature controlled stirred vessel, visual determination
Assay type: physicochemical
Conditions: for solubility: 25 °C, thermodynamic from solid; for solubility / solubility in ethanol / solubility in water: 25° C.
Procedure: The solubility of each of the four crystal polymorphs of rebaudioside B was determined in the following manner. Experiments were conducted using a known volume of solvent in a temperature controlled stirred vessel. The amount of solvent used was either 1 mL or 2 mL. Rebaudioside B was added to the solvent in the temperature controlled stirred vessel in 0.5 mg increments and held to visually determine if it dissolved. If the first 0.5 mg increment dissolved, another 0.5 mg increment was added and again held to visually determine if it dissolved. […] Each incremental addition of rebaudioside B was allowed a maximum of 1 hour to dissolve (if dissolution took place more quickly it was not necessary to wait the full 1 hour).

Row | solubility (95% ethanol/5% water solution, organic solvent or mixture, 95% ethanol/5% water solution, read-out: solubility in a 95% ethanol/5% water solution) | solubility in ethanol (in words) | solubility in ethanol | solubility in an ethanol/water mixture (in words) (ethanol/water mixture) | solubility in water (in words) (water) | solubility (water, water, water, read-out: solubility in water) | solubility in water (water) | SMILES
1 | ~28 mg/mL (≈ 34.8 mM) | moderate | about 8.3 mg/mL | high | low | < 0.5 mg/mL |  | C=C1C[C@@]23CC[C@H]4[C@@](C)(CCC[C@@]4(C)C(=O)O)[C@@H]2CC[C@]1(O[C@@H]1O[C@H](CO)[C@@H](O)[C@H](O[C@@H]2O[C@H](CO)[C@@H](O)[C@H](O)[C@H]2O)[C@H]1O[C@@H]1O[C@H](CO)[C@@H](O)[C@H](O)[C@H]1O)C3 [Form 1, rebaudioside B]
2 |  | low | about 2.7 mg/mL |  | low |  | less than 0.5 mg/mL | C=C1C[C@@]23CC[C@H]4[C@@](C)(CCC[C@@]4(C)C(=O)O)[C@@H]2CC[C@]1(O[C@@H]1O[C@H](CO)[C@@H](O)[C@H](O[C@@H]2O[C@H](CO)[C@@H](O)[C@H](O)[C@H]2O)[C@H]1O[C@@H]1O[C@H](CO)[C@@H](O)[C@H](O)[C@H]1O)C3 [Form 2, rebaudioside B]
3 |  | moderate | about 10 mg/mL |  | low |  | less than 0.5 mg/mL | C=C1C[C@@]23CC[C@H]4[C@@](C)(CCC[C@@]4(C)C(=O)O)[C@@H]2CC[C@]1(O[C@@H]1O[C@H](CO)[C@@H](O)[C@H](O[C@@H]2O[C@H](CO)[C@@H](O)[C@H](O)[C@H]2O)[C@H]1O[C@@H]1O[C@H](CO)[C@@H](O)[C@H](O)[C@H]1O)C3 [Form 3, rebaudioside B]
